Data on six compounds can be found in ChEMBL document CHEMBL1125962, “A new class of leukotriene biosynthesis inhibitors: The development of ((4-(4-chlorophenyl)-1-(4-(2-quinolinylmethoxy)phenyl)butyl)thio)acetic acid, L-674,636” (Bioorg Med Chem Lett, 1991).

Data set [1] is described as follows: Inhibition of leukotriene synthesis was assessed from inhibitory activity against human PMN. The format is functional.
The species named for data set [2] is Rattus norvegicus. Put plainly: The effective dose was measured in antigen-induced dyspnea in inbred hyperreactive rats. The data set is classed as functional.
The species named for data set [3] is Rattus norvegicus. Put plainly: The effective dose was measured by using rat pleurisy assay. The data set is classed as functional.
Data set [4] can be described thus: Percentage blockade of ascaris-induced bronchoconstriction by the compound was determined at a dose of 1 mg/kg in conscious squirrel monkey. The format is functional.
Data set [5] can be described thus: Compound was tested for bioavailability in rats. The data set is classed as ADME, organism-based. The settings on record: rat, in vivo.
Data set [6] is described as follows: Compound was tested for bioavailability in squirrel monkey. The data set is classed as ADME, organism-based, Saimiri sciureus. The settings on record: in vivo.

As a reminder, the IC50 is the concentration that inhibits the measured activity by half. `OC(CCCc1ccccc1)c1ccc(OCc2ccc3ccccc3n2)cc1` (stereo unspecified) came in with an IC50 in data set [1] of 30 nM.
Still for that read-out and setting: to `O=C(O)CO/N=C(\CCCc1ccccc1)c1ccc(OCc2ccc3ccccc3n2)cc1` belongs 80 nM.
Broadly, the ED50 is the dose at which the effect has come halfway, by size or by number of responders. Usually bioavailability stands for dose-corrected exposure relative to a reference, in per cent. Consider `O=C(O)CSC(CCCc1ccc(Cl)cc1)c1ccc(OCc2ccc3ccccc3n2)cc1` (stereo unspecified), for which the ED50 stood at 0.035 mg/kg in data set [2] and 1.6 mg/kg in data set [3]. Also, the Blockade in data set [4] was 80%. In addition, the half-inhibitory concentration (IC50) in data set [1] turned out to be 7 nM. Besides, the bioavailability in data set [5] is 100%; in data set [6], 93%.
`CCCCCC(O)c1ccc(OCc2ccc3ccccc3n2)cc1` (stereo unspecified) had an IC50 in data set [1] of 90 nM.
On the same count and under the same terms, to `O=C(O)CSC(CCCc1ccccc1)c1ccc(OCc2ccc3ccccc3n2)cc1` (stereo unspecified) [AZD-4769] belongs 3 nM; to `CCCCCC(O)c1cccc(OCc2ccc3ccccc3n2)c1` (stereo unspecified) [REV-5901], 1800 nM.
